These are literature values, as cited in US20040258731A1, “Preparation approriate for cartilage tissue formation” (priority 2001, published 2004).

For data set [1], the system named is articular cartilage.
Data set [2] relates to articular cartilage. The settings on record: experimental arthritis model animals, intraarticular administration.

For TGF-β, the synovitis entry in the data set on articular cartilage [1] (in vivo) is “marked synovitis”.
Consider “TGF-β1: an isoform of TGF-β (Transforming Growth Factor β)”, for which, in the data set on articular cartilage [1] (intraarticularly administered), the chondrogenesis entry was “promote chondrogenesis”. In addition, the “arthritis-induced loss of proteoglycans in articular cartilage” value in the data set on articular cartilage [2] was “suppresses arthritis-induced loss of proteoglycans in articular cartilage”.
